In ChEMBL document CHEMBL1148404, “Novel heteroarotinoids as potential antagonists of Mycobacterium bovis BCG” (2004):

tested on: Mycobacterium tuberculosis variant bovis; experiment: Antibacterial activity against Mycobacterium bovis (BCG); value ranges from 5-10; format: functional

| SMILES | MIC [µg/mL] |
| --- | --- |
| CCOC(=O)c1ccc(N/C(S)=N/c2ccc3c(c2)C(C)(C)CC(C)(C)O3)cc1 | < 10 |

tested on: Mycobacterium tuberculosis variant bovis; experiment: Antibacterial activity against Mycobacterium bovis (BCG); value ranges from 20-40; format: functional

| SMILES | MIC [µg/mL] |
| --- | --- |
| CCOC(=O)c1ccc(NC(=O)Nc2ccc3c(c2)C(C)(C)CC(C)(C)S3)cc1 | < 40 |
| CCOC(=O)c1ccc(NC(=O)Nc2ccc3c(c2)C(C)(C)CC(C)(C)O3)cc1 | < 40 |
| CC1(C)CC(C)(C)c2cc(N/C(S)=N/c3ccc([N+](=O)[O-])cc3)ccc2O1 | < 40 |
| COc1ccc2c(c1/N=C(\S)Nc1ccc([N+](=O)[O-])cc1)C(C)(C)COC2(C)C | < 40 |
| CC1=CC(C)(C)N(C)c2ccc(N/C(S)=N/c3ccc([N+](=O)[O-])cc3)cc21 | < 40 |
| CCOC(=O)c1ccc(N/C(S)=N/c2ccc3c(c2)C(C)=CC(C)(C)N3C)cc1 | < 40 |
| CCOC(=O)c1ccc(N/C(S)=N/c2ccc3c(c2)C(C)(C)CC(C)(C)S3)cc1 | < 40 |
| COc1ccc2c(c1NC(=S)NC(=O)c1ccc([N+](=O)[O-])cc1)C(C)(C)COC2(C)C | < 40 |
| CCOC(=O)c1ccc(NC(=O)Nc2ccc3c(c2)C(C)=CC(C)(C)N3C)cc1 | < 40 |
| CC1(C)CC(C)(C)c2cccc(/N=C(\S)Nc3ccc([N+](=O)[O-])cc3)c2O1 | < 40 |
| CCOC(=O)c1ccc(NC(=O)Nc2cccc3c2OC(C)(C)CC3(C)C)cc1 | < 40 |
| CCOC(=O)c1ccc(N/C(S)=N/c2cccc3c2OC(C)(C)CC3(C)C)cc1 | < 40 |

tested on: Mycobacterium tuberculosis variant bovis; experiment: Antibacterial activity against Mycobacterium bovis (BCG); value ranges from 0.5-1; format: functional

| SMILES | MIC [µg/mL] |
| --- | --- |
| CC(C)CCOc1ccc(NC(=S)Nc2ccc(OCCC(C)C)cc2)cc1 [TIOCARLIDE] | < 1 |

tested on: Mycobacterium tuberculosis variant bovis; experiment: Antibacterial activity against Mycobacterium bovis (BCG); value ranges from 10-20; format: functional

| SMILES | MIC [µg/mL] |
| --- | --- |
| CC1=CC(C)(C)N(C)c2ncc(/C=C/C(C)=C\C=N\N=C(/N)S)cc21 | < 20 |

tested on: Mycobacterium tuberculosis variant bovis; experiment: Antibacterial activity against Mycobacterium bovis (BCG); value ranges from 2-4; format: functional

| SMILES | MIC [µg/mL] |
| --- | --- |
| COC(=O)c1ccc(C(=O)Oc2ccc3c(c2)OC(C)(C)C=C3C)cc1 | < 4 |
